Laboratory results published in US9598424B2 (Takeda Pharmaceutical Company Limited, priority 2014, dated 2017).

Experiments:
[1] = target: T1, Full length human TBK1 (Homo sapiens, UniProt Q9UHD2); test: Inhibition of TBK1 Enzyme (Caliper microfluidic assay); type: biochemical; settings: 25 μM ATP, 60 min at RT, -log(IC50), IC50 molar; for IC50: read-out: TBK1 Inhibition (pIC50) (converted)
T1 construct: Full length human TBK1 with an N-terminal His-tag; His-tag (N); made in house; host or cells: Sf9 insect cells (baculovirus, pFastBac1)
T1 sequence (Q9UHD2 1-729): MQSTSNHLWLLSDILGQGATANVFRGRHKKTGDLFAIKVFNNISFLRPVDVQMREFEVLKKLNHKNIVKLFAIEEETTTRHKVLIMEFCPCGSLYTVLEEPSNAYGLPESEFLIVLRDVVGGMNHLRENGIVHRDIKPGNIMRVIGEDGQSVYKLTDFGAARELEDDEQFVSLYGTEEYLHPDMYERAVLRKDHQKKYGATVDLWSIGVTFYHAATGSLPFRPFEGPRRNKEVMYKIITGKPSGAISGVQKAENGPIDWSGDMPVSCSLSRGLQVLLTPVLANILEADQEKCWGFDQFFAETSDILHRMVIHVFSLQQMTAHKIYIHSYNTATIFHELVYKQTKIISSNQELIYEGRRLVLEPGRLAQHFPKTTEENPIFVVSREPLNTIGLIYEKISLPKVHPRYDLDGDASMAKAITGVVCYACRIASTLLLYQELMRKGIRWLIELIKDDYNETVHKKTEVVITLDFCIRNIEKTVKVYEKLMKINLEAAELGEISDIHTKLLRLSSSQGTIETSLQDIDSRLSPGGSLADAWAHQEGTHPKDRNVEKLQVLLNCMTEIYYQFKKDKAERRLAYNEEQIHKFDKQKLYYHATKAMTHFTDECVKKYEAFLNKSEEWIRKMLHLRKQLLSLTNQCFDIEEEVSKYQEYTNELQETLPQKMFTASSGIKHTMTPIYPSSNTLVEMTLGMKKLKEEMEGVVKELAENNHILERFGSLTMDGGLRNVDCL
How it was run: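 Enzyme: His-tagged full-length TBK1 expressed in Sf9. Reaction 60 min at RT in 20 mM Hepes pH 7.4, 10 mM MgCl2, 1 mM EDTA, 0.01% Brij-L23, 1 mM DTT, with 5FAM-peptide (added at 1 μM) and TBK1/ATP mix (added at 3 nM/25 μM), then EDTA-quenched. Conversion measured by microfluidic separation; 11-point 2.5-fold series fit to pIC50.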

[2] = target: T2, TBK1 (Homo sapiens, UniProt Q9UHD2); test: Inhibition of TBK1 in Cells (TLR3 driven ISRE β-lactamase reporter assay); type: cell-based; settings: poly IC-LMW stimulation 16 hrs, -log(EC50), EC50 molar; for EC50: read-out: Inhibition of TBK1 in cells pEC50 (EC) (converted)
T2 construct: host or cells: RA1-ISRE beta-lactamase reporter cells
T2 sequence (Q9UHD2 1-729): T1 sequence (Q9UHD2 1-729)
How it was run: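 RA1-ISRE β-lactamase reporter cells (50,000/well) treated with 11-point 2.5-fold compound dilutions and stimulated with 0.15 mg/ml poly IC-LMW for 16 hrs. Reporter read by CCF4-AM FRET; EC50 from non-linear fit of percent inhibition, reported as pEC50 (molar).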

Molecule | IC50 [1] [µM] | EC50 [2] [µM] | TBK1 Inhibition (pIC50) [1] | Inhibition of TBK1 in cells pEC50 (EC) [2]
O=C(NCCC(F)(F)F)c1nc(-c2ccc3nc(NC(=O)C4CC4)cn3c2)cs1 [Example 92, 4-(2-(cyclopropanecarboxamido)imidazo[1,2-a]pyridin-6-yl)-N-(3,3,3-trifluoropropyl)thiazole-2-carboxamide] | 0.0501 | 1.12 | – | –
O=C(NCC(F)(F)F)c1nc(-c2ccc3nc(NC(=O)C4CC4)cn3n2)cs1 [Example 21, 4-(2-(cyclopropanecarboxamido)imidazo[1,2-b]pyridazin-6-yl)-N-(2,2,2-trifluoroethyl)thiazole-2-carboxamide] | 0.0501 | 3.39 | – | –
O=C(NCC(F)F)c1nc(-c2cn3cc(NC(=O)C4CC4)nc3cn2)cs1 [Example 5, 4-(2-(cyclopropanecarboxamido)imidazo[1,2-a]pyrazin-6-yl)-N-(2,2-difluoroethyl)thiazole-2-carboxamide] | 0.01 | 0.794 | – | –
Cc1sc(C(=O)NCC(F)(F)F)cc1-c1ccc2nc(NC(=O)C3CC3)cn2c1 [Example 29, 4-(2-(cyclopropanecarboxamido)imidazo[1,2-a]pyridin-6-yl)-5-methyl-N-(2,2,2-trifluoroethyl)thiophene-2-carboxamide] | 0.0398 | 6.76 | – | –
O=C(Nc1cn2cc(-c3cc(C(=O)N4CCC(F)C4)[nH]n3)ccc2n1)C1CC1 (centres unmarked) [Example 107, N-(6-(5-(3-fluoropyrrolidine-1-carbonyl)-1H-pyrazol-3-yl)imidazo[1,2-a]pyridin-2-yl)cyclopropanecarboxamide] | 0.0631 | 2.75 | – | –
O=C(N[C@H]1CCOC1)c1nc(-c2ccc3nc(NC(=O)C4CC4)cn3c2)cs1 [Example 87, (S)-4-(2-(cyclopropanecarboxamido)imidazo[1,2-a]pyridin-6-yl)-N-(tetrahydrofuran-3-yl)thiazole-2-carboxamide] | 0.0631 | 2.88 | – | –
C[C@@H](NC(=O)c1cc(-c2ccc3nc(NC(=O)C4CC4)cn3c2)n[nH]1)C(F)(F)F [Example 104, (R)-3-(2-(cyclopropanecarboxamido)imidazo[1,2-a]pyridin-6-yl)-N-(1,1,1-trifluoropropan-2-yl)-1H-pyrazole-5-carboxamide] | 0.00501 | 0.166 | – | –
O=C(NCC(F)(F)F)c1ccn(-c2cn3cc(NC(=O)C4CC4)nc3cn2)n1 [Example 36, 1-(2-(cyclopropanecarboxamido)imidazo[1,2-a]pyrazin-6-yl)-N-(2,2,2-trifluoroethyl)-1H-pyrazole-3-carboxamide] | 0.01 | 0.245 | – | –
CC(F)(F)CNC(=O)c1cn(-c2ccc3nc(NC(=O)C4CC4)cn3c2)cn1 [Example 42, 1-(2-(cyclopropanecarboxamido)imidazo[1,2-a]pyridin-6-yl)-N-(2,2-difluoropropyl)-1H-imidazole-4-carboxamide] | 0.1 | 5.13 | – | –
O=C(Nc1cn2cc(-n3ccc(C(=O)N(CCO)CC(F)(F)F)n3)ncc2n1)C1CC1 [Example 127, 1-(2-(cyclopropanecarboxamido)imidazo[1,2-a]pyrazin-6-yl)-N-(2-hydroxyethyl)-N-(2,2,2-trifluoroethyl)-1H-pyrazole-3-carboxamide] | 0.00501 | 0.209 | – | –
O=C(Nc1cn2cc(-c3csc(C(=O)N4CCOCC4)c3)ccc2n1)C1CC1 [Example 54, N-{6-[5-(morpholine-4-carbonyl)thiophen-3-yl]imidazo[1,2-a]pyridin-2-yl}cyclopropanecarboxamide] | 0.251 | 20 | – | –
CC(C)(NC(=O)c1cc(-c2ccc3nc(NC(=O)C4CC4)cn3c2)cs1)C(F)(F)F [Example 56, 4-(2-(cyclopropanecarboxamido)imidazo[1,2-a]pyridin-6-yl)-N-(1,1,1-trifluoro-2-methylpropan-2-yl)thiophene-2-carboxamide] | 0.0251 | 0.631 | – | –
C[C@@H](NC(=O)c1nc(-c2ccc3nc(NC(=O)C4CC4)cn3c2)c[nH]1)C(F)(F)F [Example 9, 4-{2-cyclopropaneamidoimidazo[1,2-a]pyridin-6-yl}-N-[(2R)-1,1,1-trifluoropropan-2-yl]-1H-imidazole-2-carboxamide] | 0.01 | 0.229 | – | –
O=C(Nc1cn2cc(-c3csc(C(=O)N4CCC[C@H]4C(F)(F)F)c3)ccc2n1)C1CC1 [Example 61, (S)-N-(6-(5-(2-(trifluoromethyl)pyrrolidine-1-carbonyl)thiophen-3-yl)imidazo[1,2-a]pyridin-2-yl)cyclopropanecarboxamide] | 0.0398 | 2.63 | – | –
O=C(NCC(F)F)c1cc(-c2ccc3nc(NC(=O)C4CC4)cn3c2)cs1 [Example 55, 4-(2-(cyclopropanecarboxamido)imidazo[1,2-a]pyridin-6-yl)-N-(2,2-difluoroethyl)thiophene-2-carboxamide] | 0.00631 | 0.275 | – | –
O=C(Nc1cn2cc(-c3csc(C(=O)N4CCCC4CO)n3)ccc2n1)C1CC1 (centres unmarked) [Example 114, N-(6-(2-(2-(hydroxymethyl)pyrrolidine-1-carbonyl)thiazol-4-yl)imidazo[1,2-a]pyridin-2-yl)cyclopropanecarboxamide] | 0.158 | 1.62 | – | –
O=C(NC1(C(F)(F)F)CC1)c1cc(-c2ccc3nc(NC(=O)C4CC4)cn3c2)cs1 [Example 118, 4-(2-(cyclopropanecarboxamido)imidazo[1,2-a]pyridin-6-yl)-N-(1-(trifluoromethyl)cyclopropyl)thiophene-2-carboxamide] | 0.0316 | 0.676 | – | –
NC(=O)C1CCN(C(=O)c2nc(-c3ccc4nc(NC(=O)C5CC5)cn4c3)cs2)C1 (centres unmarked) [Example 98, 1-(4-(2-(cyclopropanecarboxamido)imidazo[1,2-a]pyridin-6-yl)thiazole-2-carbonyl)pyrrolidine-3-carboxamide] | 0.2 | 14.5 | – | –
COCCN(CC(F)F)C(=O)c1cc(-c2ccc3nc(NC(=O)C4CC4)cn3c2)cs1 [Example 121, 4-(2-(cyclopropanecarboxamido)imidazo[1,2-a]pyridin-6-yl)-N-(2,2-difluoroethyl)-N-(2-methoxyethyl)thiophene-2-carboxamide] | 0.0398 | 1.12 | – | –
O=C(Nc1cn2cc(-c3csc(C(=O)N4CCC(F)(F)C4)c3)ccc2n1)C1CC1 [Example 74, N-(6-(5-(3,3-difluoropyrrolidine-1-carbonyl)thiophen-3-yl)imidazo[1,2-a]pyridin-2-yl)cyclopropanecarboxamide] | 0.0316 | 1.35 | – | –
O=C(NCC(F)(F)F)c1ccn(-c2ccc3nc(NC(=O)C4CC4)cn3c2)n1 [Example 34, 1-(2-(cyclopropanecarboxamido)imidazo[1,2-a]pyridin-6-yl)-N-(2,2,2-trifluoroethyl)-1H-pyrazole-3-carboxamide] | 0.02 | 0.513 | – | –
(R)-4-(2-(cyclopropanecarboxamido)imidazo[1,2-a]pyrazin-6-yl)-N-(1,1,1-trifluoropropan-2-yl)thiazole-2-carboxamide [Example 7] | – | – | 8.1 | 6.41
O=C(Nc1cn2cc(-c3cc(C(=O)N4CCC[C@@H]4C(F)(F)F)n[nH]3)ccc2n1)C1CC1 [Example 52, (R)-N-(6-(3-(2-(trifluoromethyl)pyrrolidine-1-carbonyl)-1H-pyrazol-5-yl)imidazo[1,2-a]pyridin-2-yl)cyclopropanecarboxamide] | 0.00631 | 0.148 | – | –
O=C(NC1COC1)c1nc(-c2ccc3nc(NC(=O)C4CC4)cn3c2)cs1 [Example 122, 4-(2-(cyclopropanecarboxamido)imidazo[1,2-a]pyridin-6-yl)-N-(oxetan-3-yl)thiazole-2-carboxamide] | 0.126 | 3.72 | – | –
CN(CC(F)(F)F)C(=O)c1cc(-c2ccc3nc(NC(=O)C4CC4)cn3c2)cs1 [Example 28, 4-(2-(cyclopropanecarboxamido)imidazo[1,2-a]pyridin-6-yl)-N-methyl-N-(2,2,2-trifluoroethyl)thiophene-2-carboxamide] | 0.0126 | 0.676 | – | –
